In publication PMC6504561 (Science signaling, 2017):

Assays:
ARHGEF2 = details: cited from earlier work; for effect on ARHGEF2 release from microtubules and RHOA activation: disruption of polymerized microtubules; for effect on ARHGEF2 activation: GPCR ligands
[1] = system: ARHGEF2 Ser^151 phosphorylation; assay: Western blot of ARHGEF2 Ser^151 phosphorylation in treated HEK293T cells; type: cell-based; details: 1mM for 6 hours, normalized with total ARHGEF2, three independent experiments
14-3-3 = molecular target: T1, 14-3-3 (Mus musculus, UniProt P63101); assay: Microscale thermophoresis; type: binding, murine; details: MST; peptides at 100 nM; GST-14-3-3 serial dilutions 195 μM to 2 nM; 20 mM HEPES pH 7.4, 150 mM NaCl, 1 mM DTT, 0.05 % Tween20; three independent experiments
T1 sequence (P63101 1-245): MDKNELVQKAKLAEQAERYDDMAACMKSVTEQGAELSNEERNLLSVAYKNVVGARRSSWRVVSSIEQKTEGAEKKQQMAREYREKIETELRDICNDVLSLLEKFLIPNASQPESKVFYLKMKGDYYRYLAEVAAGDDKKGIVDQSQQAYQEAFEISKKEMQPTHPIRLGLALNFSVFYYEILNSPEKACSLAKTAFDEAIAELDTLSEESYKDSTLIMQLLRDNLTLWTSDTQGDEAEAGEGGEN

COc1cc2c(c(OC)c1OC)-c1ccc(OC)c(=O)cc1[C@@H](NC(C)=O)CC2 [Colchicine]
effect on ARHGEF2 release from microtubules and RHOA activation (ARHGEF2): release ARHGEF2 and lead to potent activation of RHOA

lysophosphatidic acid
effect on ARHGEF2 activation (ARHGEF2): trigger activation of ARHGEF2

NC(=O)c1ncn([C@@H]2O[C@H](COP(=O)(O)O)[C@@H](O)[C@H]2O)c1N [5-Aminoimidazole-4-carboxamide ribonucleotide]
ARHGEF2 Ser^151 phosphorylation [1]: no apparent change in phosphorylation of this residue was observed

thrombin
effect on ARHGEF2 activation (ARHGEF2): trigger activation of ARHGEF2

RRPLDPRRR[(p)Ser885]LPAGDA[Lys(FITC)]
binding to 14-3-3 (in words) (14-3-3): no binding was detected

COC(=O)Nc1nc2ccc(C(=O)c3cccs3)cc2[nH]1 [Nocodazol]
effect on ARHGEF2 release from microtubules and RHOA activation (ARHGEF2): release ARHGEF2 and lead to potent activation of RHOA

CC(=O)O[C@H]1C(=O)[C@@]2(C)[C@H]([C@H](OC(=O)c3ccccc3)[C@]3(O)C[C@H](OC(=O)[C@H](O)[C@@H](NC(=O)c4ccccc4)c4ccccc4)C(C)=C1C3(C)C)[C@]1(OC(C)=O)CO[C@@H]1C[C@@H]2O [Paclitaxel]
effect on ARHGEF2 release from microtubules and RHOA activation (ARHGEF2): an effect that can be reversed by the microtubule stabilizing drug Paclitaxel

SSLSLAKSV[(p)Ser^151]TTNIAG[Lys(FITC)]
binding to 14-3-3 (in words) (14-3-3): no binding was detected
